Columns and labels:
oestrogen receptor (ER) = target: T1, oestrogen receptor (ER) (Homo sapiens, UniProt P03372); experiment: Anti-oestrogenic action in MVLN cells (inhibition of estradiol-induced luciferase, transactivation antagonism); assay type: cell-based; conditions: inhibition of estradiol-induced luciferase activity, read-out: Anti-oestrogenic action in vitro: MVLN transactivation antagonism IC50
T1 construct: These MVLN cells express, along with the functional oestrogen receptor (ER), a reporter construct; endogenous in cells; host or cells: MVLN cells (MCF7 derivative with ER-responsive luciferase reporter)
T1 sequence (P03372 1-595): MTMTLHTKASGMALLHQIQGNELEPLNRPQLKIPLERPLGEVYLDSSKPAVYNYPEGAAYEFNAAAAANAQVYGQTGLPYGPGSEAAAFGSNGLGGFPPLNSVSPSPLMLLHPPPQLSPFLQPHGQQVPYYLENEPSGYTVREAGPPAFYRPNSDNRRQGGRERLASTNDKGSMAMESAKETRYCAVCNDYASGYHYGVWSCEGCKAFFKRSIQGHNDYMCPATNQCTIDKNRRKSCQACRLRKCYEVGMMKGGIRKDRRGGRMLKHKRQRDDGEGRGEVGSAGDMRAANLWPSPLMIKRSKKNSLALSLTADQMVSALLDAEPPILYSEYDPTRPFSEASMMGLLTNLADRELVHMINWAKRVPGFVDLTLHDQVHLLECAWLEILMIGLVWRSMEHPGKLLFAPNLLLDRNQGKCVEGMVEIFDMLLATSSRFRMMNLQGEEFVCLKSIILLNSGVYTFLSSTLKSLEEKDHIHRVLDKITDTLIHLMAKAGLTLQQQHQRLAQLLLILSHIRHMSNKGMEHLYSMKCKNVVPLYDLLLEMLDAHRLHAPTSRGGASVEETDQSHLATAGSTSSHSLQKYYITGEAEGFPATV
Method in brief: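 MCF7-derived MVLN cells carrying an ER-driven luciferase reporter; test compounds applied with estradiol, and anti-oestrogenic action scored as inhibition of the estradiol-induced luciferase signal.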

[1] = system: uterus growth induced by 17β-estradiol; experiment: Anti-uterus growth test in the adult rat; assay type: in vivo; conditions: ovariectomized adult rat, percentage inhibition of uterus growth; for Anti-oestrogenic activity in vivo in % at a dose of 1 mg/kg (rat): 1 mg/kg s.c. d1-d3 with 1.5 μg/kg/day 17β-estradiol; for inhibition in vivo at 0.3 mg/kg: sc, 0.3 mg/kg s.c. d1-d3 with 1.5 μg/kg/day 17β-estradiol, read-out: Anti-oestrogenic activity in vivo in % at a dose of 0.3 mg/kg (rat)
From the text: The uterus of oestrogen-substituted rats can be used as a test model for detecting a direct action of substances with anti-oestrogenic properties. The parameter of oestrogenic action is estradiol-induced uterus growth in rats, which is inhibited by simultaneous administration of a substance with anti-oestrogenic action. The experimental animals (n=5-6 animals/group) were ovariectomized before the start of the test, to rule out the influence of endogenous oestrogens. After a phase of 6 to 10 days, the test substances are administered s.c. on 3 consecutive days (d1-d3) in combination with a substitution dose of 1.5 μg/kg/day of 17β-estradiol. 17β-estradiol alone serves as positive control, and the excipients serve as negative control. On day 4 (d4) the animals are killed, and the uteri and vaginae are removed and weighed. The organ weights are converted to mg/100 g body weight, then the mean value and the standard deviation are calculated for each dosage. The inhibition of uterus or vaginal growth induced by 17β-estradiol is shown as percentage inhibition. The selected claimed substances were investigated in adult female rats as described for their anti-oestrogenic, inhibitory action on the weight of the uterus. At the dosage used, the substances show a marked anti-oestrogenic action in vivo (Table 3 and Table 4).

Row | Structure (SMILES) | IC50 (oestrogen receptor (ER)) [nM] | Anti-oestrogenic activity in vivo in % at a dose of 1 mg/kg (rat) [1] [%] | inhibition in vivo at 0.3 mg/kg [1] [%]
1 | CN(CCCCCC1=C(c2cccc(O)c2)CCCc2cc(O)ccc21)CCCC[S+]([O-])CCCC(F)(F)C(F)(F)F (racemic) [Example 6, 8-(3-Hydroxyphenyl)-9-[5-(methyl{4-[(RS)-(4,4,5,5,5-pentafluoropentyl)sulphinyl]butyl}amino)pentyl]-6,7-dihydro-5H-benzo[7]annulen-3-ol] | 4 | 64 | 22
2 | CN(CCCCCCC1=C(c2cccc(S(C)(=O)=O)c2)CCCc2cc(O)ccc21)CCC[S+]([O-])CCCC(F)(F)C(F)(F)F (racemic) [Example 21, 8-(3-Mesylphenyl)-9-[6-(methyl{3-[(RS)-(4,4,5,5,5-pentafluoropentyl)sulphinyl]propyl}amino)hexyl]-6,7-dihydro-5H-benzo[7]annulen-3-ol] | 5 |  | 37
3 | CN(CCCCCC1=C(c2ccc(O)c(F)c2)CCCc2cc(O)ccc21)CCC[S+]([O-])CCCC(F)(F)C(F)(F)F (racemic) [Example 37, 8-(3-Fluoro-4-hydroxyphenyl)-9-[5-(methyl{3-[(RS)-(4,4,5,5,5-pentafluoropentyl)sulphinyl]propyl}amino)pentyl]-6,7-dihydro-5H-benzo[7]annulen-3-ol] | 1 |  | 59
4 | CN(CCCCCC1=C(c2ccc(S(C)(=O)=O)cc2)CCCc2cc(O)ccc21)CCC[S+]([O-])CCCC(F)(F)C(F)(F)F (racemic) [Example 46, 8-(4-Mesylphenyl)-9-[5-(methyl{3-[(RS)-(4,4,5,5,5-pentafluoropentyl)sulphinyl]propyl}amino)pentyl]-6,7-dihydro-5H-benzo[7]annulen-3-ol] | 14 | 31 | 
5 | CN(CCCCCCC1=C(c2ccccc2)CCCc2cc(O)ccc21)CCC[S+]([O-])CCCC(F)(F)C(F)(F)F (racemic) [Example 64, 9-[6-(Methyl{3-[(RS)-(4,4,5,5,5-pentafluoropentyl)sulphinyl]propyl}amino)hexyl]-8-phenyl-6,7-dihydro-5H-benzo[7]annulen-3-ol] | 5 |  | 85
6 | CN(CCCCCCC1=C(c2ccccc2)CCCc2c1ccc(O)c2Cl)CCCCS(=O)(=O)CCC(F)(F)F [Example 109, 4-Chloro-9-[6-(methyl{4-[(3,3,3-trifluoropropyl)sulphonyl]butyl}amino)hexyl]-8-phenyl-6,7-dihydro-5H-benzo[7]annulen-3-ol] | 87 |  | 
7 | CN(CCCCCCC1=C(c2ccc(F)c(O)c2)CCCc2cc(O)ccc21)CCCCS(=O)(=O)CCC(F)(F)F [Example 110, 8-(4-Fluoro-3-hydroxyphenyl)-9-[6-(methyl{4-[(3,3,3-trifluoropropyl)sulphonyl]butyl}amino)hexyl]-6,7-dihydro-5H-benzo[7]annulen-3-ol] | 5 |  | 
8 | CN(CCCCCC1=C(c2ccccc2)CCCc2cc(O)ccc21)CCCCS(=O)(=O)CCC(F)(F)F [Example 111, 9-[5-(Methyl{4-[(3,3,3-trifluoropropyl)sulphonyl]butyl}amino)pentyl]-8-phenyl-6,7-dihydro-5H-benzo[7]annulen-3-ol] | 250 |  | 
9 | CN(CCCCCC1=C(c2cccc(O)c2)CCCc2cc(O)ccc21)CCCCS(=O)(=O)CCC(F)(F)F [Example 112, 8-(3-Hydroxyphenyl)-9-[5-(methyl{4-[(3,3,3-trifluoropropyl)sulphonyl]butyl}amino)pentyl]-6,7-dihydro-5H-benzo[7]annulen-3-ol] | 45 |  | 
10 | CN(CCCCCCC1=C(c2cccc(O)c2)CCCc2cc(O)ccc21)CCCCS(=O)(=O)CCC(F)(F)F [Example 113, 8-(3-Hydroxyphenyl)-9-[6-(methyl{4-[(3,3,3-trifluoropropyl)sulphonyl]butyl}amino)hexyl]-6,7-dihydro-5H-benzo[7]annulen-3-ol] | 2 |  | 
11 | CN(CCCCCCC1=C(c2ccc(F)c(O)c2)CCCc2c1ccc(O)c2F)CCCS(=O)(=O)CCCC(F)(F)C(F)(F)F [Example 114, 4-Fluoro-8-(4-fluoro-3-hydroxyphenyl)-9-[6-(methyl{3-[(4,4,5,5,5-pentafluoropentyl)sulphonyl]propyl}amino)hexyl]-6,7-dihydro-5H-benzo[7]annulen-3-ol] | 20 |  | 
12 | O=S(=O)(CCCN(CCO)CCCCCCC1=C(c2ccc(F)c(O)c2)CCCc2c1ccc(O)c2F)CCCC(F)(F)C(F)(F)F [Example 115, 4-Fluoro-8-(4-fluoro-3-hydroxyphenyl)-9-{6-[(2-hydroxyethyl){3-[(4,4,5,5,5-pentafluoropentyl)sulphonyl]propyl}amino]hexyl}-6,7-dihydro-5H-benzo[7]annulen-3-ol] | 12 |  | 
13 | CN(CCCCCCC1=C(c2ccc(F)c(O)c2)CCCc2c1ccc(O)c2F)CCCS(=O)(=O)CCC(F)(F)C(F)(F)F [Example 116, 4-Fluoro-8-(4-fluoro-3-hydroxyphenyl)-9-[6-(methyl{3-[(3,3,4,4,4-pentafluorobutyl)sulphonyl]propyl}amino)hexyl]-6,7-dihydro-5H-benzo[7]annulen-3-ol] | 34 |  | 
14 | CN(CCCCCCC1=C(c2ccc(F)c(O)c2)CCCc2c1ccc(O)c2F)CCCCS(=O)(=O)CCCC(F)(F)C(F)(F)F [Example 117, 4-Fluoro-8-(4-fluoro-3-hydroxyphenyl)-9-[6-(methyl{4-[(4,4,5,5,5-pentafluoropentyl)sulphonyl]butyl}amino)hexyl]-6,7-dihydro-5H-benzo[7]annulen-3-ol] | 11 |  | 
15 | CN(CCCCCCC1=C(c2ccc(F)c(O)c2)CCCc2c1ccc(O)c2F)CCCCS(=O)(=O)CCCC(F)(F)F [Example 118, 4-Fluoro-8-(4-fluoro-3-hydroxyphenyl)-9-[6-(methyl{4-[(4,4,4-trifluorobutyl)sulphonyl]butyl}amino)hexyl]-6,7-dihydro-5H-benzo[7]annulen-3-ol] | 9 |  | 
16 | CN(CCCCCCC1=C(c2ccc(F)c(O)c2)CCCc2c1ccc(O)c2F)CCCCS(=O)(=O)CCC(F)(F)F [Example 119, 4-Fluoro-8-(4-fluoro-3-hydroxyphenyl)-9-[6-(methyl{4-[(3,3,3-trifluoropropyl)sulphonyl]butyl}amino)hexyl]-6,7-dihydro-5H-benzo[7]annulen-3-ol] | 7 |  | 
17 | CN(CCCCCCC1=C(c2ccc(F)c(O)c2)CCCc2cc(O)c(F)cc21)CCCCS(=O)(=O)CCCC(F)(F)C(F)(F)F [Example 121, 2-Fluoro-8-(4-fluoro-3-hydroxyphenyl)-9-[6-(methyl{4-[(4,4,5,5,5-pentafluoropentyl)sulphonyl]butyl}amino)hexyl]-6,7-dihydro-5H-benzo[7]annulen-3-ol] | 7 |  | 
18 | CN(CCCCCCC1=C(c2ccc(F)c(O)c2)CCCc2cc(O)c(F)cc21)CCCS(=O)(=O)CCC(F)(F)C(F)(F)F [Example 123, 2-Fluoro-8-(4-fluoro-3-hydroxyphenyl)-9-[6-(methyl{3-[(3,3,4,4,4-pentafluorobutyl)sulphonyl]propyl}amino)hexyl]-6,7-dihydro-5H-benzo[7]annulen-3-ol] | 11 |  | 
19 | CN(CCCCCCC1=C(c2ccc(F)c(O)c2)CCCc2cc(O)c(F)cc21)CCCS(=O)(=O)CCC(F)(F)F [Example 126, 2-Fluoro-8-(4-fluoro-3-hydroxyphenyl)-9-[6-(methyl{3-[(3,3,3-trifluoropropyl)sulphonyl]propyl}amino)hexyl]-6,7-dihydro-5H-benzo[7]annulen-3-ol] | 32 |  | 
20 | CN(CCCCCCC1=C(c2ccc(F)c(O)c2)CCCc2cc(O)c(F)cc21)CCCS(=O)(=O)CCCC(F)(F)F [Example 127, 2-Fluoro-8-(4-fluoro-3-hydroxyphenyl)-9-[6-(methyl{3-[(4,4,4-trifluorobutyl)sulphonyl]propyl}amino)hexyl]-6,7-dihydro-5H-benzo[7]annulen-3-ol] | 6 |  | 
21 | CN(CCCCCCC1=C(c2ccc(F)c(O)c2)CCCc2cc(O)c(F)cc21)CCCCS(=O)(=O)CCCC(F)(F)F [Example 128, 2-Fluoro-8-(4-fluoro-3-hydroxyphenyl)-9-[6-(methyl{4-[(4,4,4-trifluorobutyl)sulphonyl]butyl}amino)hexyl]-6,7-dihydro-5H-benzo[7]annulen-3-ol] | 5 |  | 

— patent US20150080438A1, “6,7-Dihydro-5H-benzo[7]annulene derivatives, processes for their preparation, pharmaceutical products comprising them and their use for preparing medicaments” (Bayer Intellectual Property GmbH, priority 2011, published 2015)
